Structures are written as SMILES. Where a name gives a salt, the structure may show the parent alone.

Experimental findings from paper PMC3265452 (PLoS Neglected Tropical Diseases, 2012) are described below.

In one assay the target is AaDOP2 (Aedes aegypti, UniProt H6D5H2). As to the kind of experiment: AaDOP2 antagonist screen of the LOPAC1280 library (HEK-CRELuc-Aadop2 cells, luminescence). Format: cell-based.
Chain of AaDOP2 (H6D5H2 1-476): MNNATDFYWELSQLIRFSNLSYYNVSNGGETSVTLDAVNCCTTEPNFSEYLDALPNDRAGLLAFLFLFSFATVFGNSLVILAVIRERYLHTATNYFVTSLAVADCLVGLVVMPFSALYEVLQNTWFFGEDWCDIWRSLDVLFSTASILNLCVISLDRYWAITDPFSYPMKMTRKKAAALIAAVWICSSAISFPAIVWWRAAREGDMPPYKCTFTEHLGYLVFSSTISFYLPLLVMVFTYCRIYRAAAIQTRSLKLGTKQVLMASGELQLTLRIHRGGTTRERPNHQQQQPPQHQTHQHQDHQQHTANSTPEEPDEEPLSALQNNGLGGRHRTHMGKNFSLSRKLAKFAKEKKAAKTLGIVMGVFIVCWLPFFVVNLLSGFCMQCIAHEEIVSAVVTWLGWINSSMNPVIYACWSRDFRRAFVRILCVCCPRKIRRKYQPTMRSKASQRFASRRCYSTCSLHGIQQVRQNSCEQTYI
Details: not given
With `CN1[C@@H]2CC[C@H]1C[C@@H](OC(=O)[C@H](CO)c1ccccc1)C2` [Compound 609, L-Hyoscyamine], the “Compound effect (percent receptor signaling in presence of test compound, relative lux units relative to the SCH23390 control)” value stood at 75.

For `Oc1ccc(O)cc1` [Compound 610, Hydroquinone], the “Compound effect (percent receptor signaling in presence of test compound, relative lux units relative to the SCH23390 control)” value turned out to be 89.

On to `S=C=Nc1ccc2oc(C3=NCCN3)cc2c1` [Compound 611, BU99006], for which the “Compound effect (percent receptor signaling in presence of test compound, relative lux units relative to the SCH23390 control)” value stood at 104.

As for `Cl.Cl.NNCc1cccc(O)c1` [Compound 612, 3-Hydroxybenzylhydrazine dihydrochloride], the “Compound effect (percent receptor signaling in presence of test compound, relative lux units relative to the SCH23390 control)” value is reported as 104.

For `CCCc1c(OCCCOc2ccc(OCC(=O)O)cc2)ccc(C(C)=O)c1O` [Compound 614, L-165,041], the “Compound effect (percent receptor signaling in presence of test compound, relative lux units relative to the SCH23390 control)” value amounted to 116.

`N[C@@H](Cc1c[nH]c2ccc(O)cc12)C(=O)O` [Compound 615, 5-Hydroxy-L-tryptophan]: the “Compound effect (percent receptor signaling in presence of test compound, relative lux units relative to the SCH23390 control)” value stood at 126.

For `NNC(=O)c1ccc(O)cc1` [Compound 617, 4-Hydroxybenzhydrazide], the “Compound effect (percent receptor signaling in presence of test compound, relative lux units relative to the SCH23390 control)” value was found to be 78.

With `C[N+]1(C)CCOC(O)(c2ccc(-c3ccc(C4(O)C[N+](C)(C)CCO4)cc3)cc2)C1` (stereo not shown) [Compound 618, Hemicholinium-3], the “Compound effect (percent receptor signaling in presence of test compound, relative lux units relative to the SCH23390 control)” value stood at 106.

For the compound `Br.CCCN(CCC)[C@@H]1CCc2cccc(O)c2C1` [Compound 624, R-(+)-8-Hydroxy-DPAT hydrobromide], the “Compound effect (percent receptor signaling in presence of test compound, relative lux units relative to the SCH23390 control)” value is 89.

As for `COc1[nH]c2ccc(F)cc2c1C(=O)OCC1CCN(CCNS(C)(=O)=O)CC1.NS(=O)(=O)O` [Compound 626, GR 125487 sulfamate salt], the “Compound effect (percent receptor signaling in presence of test compound, relative lux units relative to the SCH23390 control)” value worked out at 87.

On to `Br.C[N+](C)(C)CCCCCNCC12CC3CC(CC(C3)C1)C2.[Br-]` [Compound 627, IEM-1460], for which the “Compound effect (percent receptor signaling in presence of test compound, relative lux units relative to the SCH23390 control)” value is reported as 97.

As for `CC(C)C(=O)c1c(C(C)C)nn2ccccc12` [Compound 628, Ibudilast], the “Compound effect (percent receptor signaling in presence of test compound, relative lux units relative to the SCH23390 control)” value turned out to be 136.

On to `Cl.O=C(O)Cc1c[nH]cn1` [Compound 629, Imidazole-4-acetic acid hydrochloride], for which the “Compound effect (percent receptor signaling in presence of test compound, relative lux units relative to the SCH23390 control)” value amounted to 122.

For the compound `O=C1C(SCCO)=C(SCCO)C(=O)c2ccccc21` [Compound 631, NSC 95397], the “% of the SCH23390 effect (percent inhibition of receptor response relative to the SCH23390 control)” value was found to be 83% and the “Compound effect (percent receptor signaling in presence of test compound, relative lux units relative to the SCH23390 control)” value was found to be 17.

`O=C1CCC(c2ccc(-n3ccnc3)cc2)=NN1` [Compound 632, Imazodan]: the “Compound effect (percent receptor signaling in presence of test compound, relative lux units relative to the SCH23390 control)” value came out at 92.

As to `NC(=O)CI` [Compound 633, Iodoacetamide], the “Compound effect (percent receptor signaling in presence of test compound, relative lux units relative to the SCH23390 control)” value is 84.

`O=S(=O)(c1cccc2cnccc12)N1CCNCC1` [Compound 634, HA-100]: the “Compound effect (percent receptor signaling in presence of test compound, relative lux units relative to the SCH23390 control)” value is 71.

Regarding `CC(C)[N+]1(C)[C@@H]2CC[C@H]1C[C@@H](OC(=O)C(CO)c1ccccc1)C2` (stereo partly shown) [Compound 635, Ipratropium bromide], the “Compound effect (percent receptor signaling in presence of test compound, relative lux units relative to the SCH23390 control)” value came out at 118.

On to `CC(=O)[C@]1(O)Cc2c(O)c3c(c(O)c2[C@@H](O[C@H]2C[C@H](N)[C@H](O)[C@H](C)O2)C1)C(=O)c1ccccc1C3=O` [Compound 636, Idarubicin], for which the “Compound effect (percent receptor signaling in presence of test compound, relative lux units relative to the SCH23390 control)” value is 17.

With `COc1ccc2[nH]c(I)c(CCNC(C)=O)c2c1` [Compound 637, 2-Iodomelatonin], the “Compound effect (percent receptor signaling in presence of test compound, relative lux units relative to the SCH23390 control)” value came out at 113.

Take `CN([C@@H](Cc1ccc(OS(=O)(=O)c2cccc3cnccc23)cc1)C(=O)N1CCN(c2ccccc2)CC1)S(=O)(=O)c1cccc2cnccc12` [Compound 638, KN-62]: the “Compound effect (percent receptor signaling in presence of test compound, relative lux units relative to the SCH23390 control)” value was found to be 104.

Turning to `O=S(=O)(c1cccc2c(I)cccc12)N1CCCNCC1` [Compound 641, ML-7], the “Compound effect (percent receptor signaling in presence of test compound, relative lux units relative to the SCH23390 control)” value is given as 85.

On to `CCCC(=O)NCCc1c2n(c3ccc(OC)cc13)Cc1ccccc1-2` [Compound 647, IIK7], for which the “Compound effect (percent receptor signaling in presence of test compound, relative lux units relative to the SCH23390 control)” value was found to be 96.

For the compound `CC(C)Cn1c(=O)n(C)c(=O)c2[nH]cnc21` [Compound 649, 3-Isobutyl-1-methylxanthine], the “Compound effect (percent receptor signaling in presence of test compound, relative lux units relative to the SCH23390 control)” value amounted to 129.

Take `c1ccc2c(c1)OCC(C1=NCCN1)O2` (stereo not shown) [Compound 650, Idazoxan hydrochloride]: the “Compound effect (percent receptor signaling in presence of test compound, relative lux units relative to the SCH23390 control)” value is given as 103.

Consider `CC1CN(S(=O)(=O)c2cccc3cnccc23)CCN1.Cl.Cl` (stereo not shown) [Compound 651, 1-(5-Isoquinolinylsulfonyl)-3-methylpiperazine dihydrochloride], for which the “Compound effect (percent receptor signaling in presence of test compound, relative lux units relative to the SCH23390 control)” value is on record as 100.

In the case of `CC1CNCCN1S(=O)(=O)c1cccc2cnccc12.Cl.Cl` (stereo not shown) [Compound 653, 1-(5-Isoquinolinylsulfonyl)-2-methylpiperazine dihydrochloride], the “Compound effect (percent receptor signaling in presence of test compound, relative lux units relative to the SCH23390 control)” value came to 29.

Regarding `COc1ccc2c(c1)c(CC(=O)O)c(C)n2C(=O)c1ccc(Cl)cc1` [Compound 654, Indomethacin], the “Compound effect (percent receptor signaling in presence of test compound, relative lux units relative to the SCH23390 control)” value stood at 100.

For `Nc1nc2[nH]c(=O)cnc2c(=O)[nH]1` [Compound 656, Isoxanthopterin], the “Compound effect (percent receptor signaling in presence of test compound, relative lux units relative to the SCH23390 control)” value stood at 106.

For `CC(=N)NCCCC[C@H](N)C(=O)O.Cl` [Compound 659, L-N6-(1-Iminoethyl)lysine hydrochloride], the “Compound effect (percent receptor signaling in presence of test compound, relative lux units relative to the SCH23390 control)” value is given as 101.

For the compound `N[C@@H](Cc1ccc(O)c(I)c1)C(=O)O` [Compound 660, 3-Iodo-L-tyrosine], the “Compound effect (percent receptor signaling in presence of test compound, relative lux units relative to the SCH23390 control)” value came out at 100.

Turning to `CC(=N)NCCC[C@H](N)C(=O)O.Cl` [Compound 661, L-N5-(1-Iminoethyl)ornithine hydrochloride], the “Compound effect (percent receptor signaling in presence of test compound, relative lux units relative to the SCH23390 control)” value amounted to 102.

In the case of `CC[C@H](C)[C@H]1O[C@]2(CC[C@@H]1C)C[C@@H]1C[C@@H](C/C=C(\C)[C@@H](O[C@H]3C[C@H](OC)[C@@H](O[C@H]4C[C@H](OC)[C@@H](O)[C@H](C)O4)[C@H](C)O3)[C@@H](C)/C=C/C=C3\CO[C@@H]4[C@H](O)C(C)=C[C@@H](C(=O)O1)[C@]34O)O2` [Compound 662, Ivermectin], the “Compound effect (percent receptor signaling in presence of test compound, relative lux units relative to the SCH23390 control)” value is reported as 101.

With `CCn1ccnc1CC1COc2ccccc2O1` (stereo not shown) [Compound 663, Imiloxan hydrochloride], the “Compound effect (percent receptor signaling in presence of test compound, relative lux units relative to the SCH23390 control)” value is 96.

On to `Cc1cc(C)c(NC(=O)C[C@H](CC(=O)O)c2cccc3ccccc23)c(C(=O)N2CCC3(CCCC3)CC2)c1` [Compound 664, CR 2945], for which the “Compound effect (percent receptor signaling in presence of test compound, relative lux units relative to the SCH23390 control)” value is listed as 101.

On to `CC(C)Cc1ccc([C@H](C)C(=O)O)cc1` [Compound 666, S(+)-Ibuprofen], for which the “Compound effect (percent receptor signaling in presence of test compound, relative lux units relative to the SCH23390 control)” value is on record as 102.

Still in this assay, the particulars now being: 10 µM compound, 300 nM dopamine, 2 hr; hit = compound effect <20.
For the compound `Cl.NO` [Compound 616, Hydroxylamine hydrochloride], the “Compound effect (percent receptor signaling in presence of test compound, relative lux units relative to the SCH23390 control)” value is recorded as 118%.

In the case of `Cl.NC(N)=NCCNS(=O)(=O)c1cccc2cnccc12` [Compound 619, HA-1004 hydrochloride], the “Compound effect (percent receptor signaling in presence of test compound, relative lux units relative to the SCH23390 control)” value was 89%.

Consider `CC1CNCCN1S(=O)(=O)c1cccc2cnccc12.Cl.Cl` (stereo not shown) [Compound 620, H-7 dihydrochloride], for which the “Compound effect (percent receptor signaling in presence of test compound, relative lux units relative to the SCH23390 control)” value was found to be 38%.

For `Cl.O[Si](CCCN1CCCCC1)(c1ccc(F)cc1)C1CCCCC1` (stereo not shown) [Compound 621, Hexahydro-sila-difenidol hydrochloride, p-fluoro analog], the “Compound effect (percent receptor signaling in presence of test compound, relative lux units relative to the SCH23390 control)” value came to 73%.

In the case of `CCCCCC(O)CCCC(=O)O.[Na]` (stereo not shown) [Compound 623, 5-hydroxydecanoic acid sodium], the “Compound effect (percent receptor signaling in presence of test compound, relative lux units relative to the SCH23390 control)” value worked out at 126%.

In the case of `Br.CCCN(CCC)[C@@H]1CCc2ccc(O)cc2C1` [Compound 625, R-(+)-7-Hydroxy-DPAT hydrobromide], the “Compound effect (percent receptor signaling in presence of test compound, relative lux units relative to the SCH23390 control)” value amounted to 85%.

Take `O=C1Nc2ccccc2/C1=C1/Nc2ccccc2/C1=N\O` [Compound 630, Indirubin-3'-oxime]: the “Compound effect (percent receptor signaling in presence of test compound, relative lux units relative to the SCH23390 control)” value is reported as 23%.

Turning to `CC(C(O)c1ccc(O)cc1)N1CCC(Cc2ccccc2)CC1.CC(C(O)c1ccc(O)cc1)N1CCC(Cc2ccccc2)CC1.O=C(O)C(O)C(O)C(=O)O` (stereo not shown) [Compound 643, Ifenprodil tartrate], the “Compound effect (percent receptor signaling in presence of test compound, relative lux units relative to the SCH23390 control)” value was 64%.

Turning to `CCC(NC(C)C)C(O)c1ccc(O)c(O)c1.CS(=O)(=O)O` (stereo not shown) [Compound 644, Isotharine mesylate], the “Compound effect (percent receptor signaling in presence of test compound, relative lux units relative to the SCH23390 control)” value was 115%.

For `CC(C)NNC(=O)c1ccncc1.O=P(O)(O)O` [Compound 657, Iproniazid phosphate], the “Compound effect (percent receptor signaling in presence of test compound, relative lux units relative to the SCH23390 control)” value is on record as 97%.

In the case of `NC(N)=NCc1cccc(I)c1.NC(N)=NCc1cccc(I)c1.O=S(=O)(O)O` [Compound 665, m-Iodobenzylguanidine hemisulfate], the “Compound effect (percent receptor signaling in presence of test compound, relative lux units relative to the SCH23390 control)” value was determined as 96%.

The assay is the same for the next values; noted with them: read-out: % of the SCH23390 effect (percent inhibition of receptor response relative to the SCH23390 control).
Turning to `CC(=O)[C@]1(O)Cc2c(O)c3c(c(O)c2[C@@H](O[C@H]2C[C@H](N)[C@H](O)[C@H](C)O2)C1)C(=O)c1ccccc1C3=O` [Compound 636, Idarubicin], the inhibition at 10 µM came out at 83%.
